Source: US9782472B2, “Therapeutic compositions and methods for treating HIV including identification and manipulation of particular domains associated with immunogenicity” (The Regents of The University of California, priority 2008, dated 2017)

Assays:
Assay type in all cases: cell-based, HIV-1
108060 clone 022 wtR = settings: 108060_022 wtR; 50% inhibition in target cell infection
Description: (§1) Construction of envelope gene libraries and pseudoviruses. Libraries of envelope glycoprotein were created from each subject by PCR amplification of full length envelope genes from cryopreserved plasma using the method described previously. The swarm of PCR products was cloned into a plasmid expression vector useful for the construction of pseudoviruses. The vector was specifically designed to permit the construction of pseudovirus libraries for use in a well-established and validated virus neutralization assay. However, instead of pooling all of the clones together and carrying out neutralization assays or drug sensitivity assays with an entire library of cloned genes from each infected individual as had been done previously, we plated out the plasmid library on agar plates and picked 24-48 clones from each individual for infectivity studies. The plasmid DNA was isolated from each clone and used to create a stock of pseudovirus particles that were then screened for infectivity, and chemokine receptor usage. After verifying infectivity and receptor usage, we then selected approximately ten CCR5-dependent pseudotype viruses with good infectivity for virus neutralization assays. The virus neutralization assays were carried out as described by Schweighardt et al.
(§2) Virus neutralization assay. The automated virus neutralization assay described in this study has been described previously. The neutralization data reported represent IC50 values calculated from serum dilution curves. This assay employs multiple assay controls, including a positive pseudotype virus control panel and a negative pseudotype virus control panel. Assay acceptability criteria have been established to minimize interassay variability and assure comparability of data from different experiments. The positive virus control panel includes the pseudotypes from the neutralization sensitive isolate, NL43, and the less neutralization sensitive primary isolate JRcsf. The negative virus (specificity) control consists of pseudotype viruses prepared from the envelope of the amphitropic murine leukemia virus.

108060 clone 024 wtS = tested on: 108060 clone 024 wtS
Description: as §1, §2

108069_005 wtR = tested on: 108069_005 wtR
Description: as §1, §2

108069_011 wtS = tested on: 108069_011 wtS
Description: as §1, §2

108051_005 wtR = tested on: 108051_005 wtR
Description: as §1, §2

108051_006 wtS = tested on: 108051_006 wtS
Description: as §1, §2

108069_005 Q655R = tested on: 108069_005 Q655R
Description: as §1
(§3) Sequencing and mutagenesis. Plasmids containing cloned envelope glycoproteins were sequenced using fluorescently labeled dideoxynucleotides at either Monogram Biosciences or the University of California Sequencing Facility (Berkeley, Calif.) using capillary electrophoresis sequencing devices (Applied Biosystems, Foster City, Calif.). HIV envelope glycoprotein sequences were mutagenized by a mismatched primer method using the QuikChange Mutagenesis kit (Stratagene, San Diego). All mutations were confirmed by DNA sequencing. The numbering of amino acids is made with reference to the sequence of gp160 from clone 022 of from subject 108060. Position 655 corresponds to position 653 of the HXB2 reference strain of HIV-1.
as §2

108051_005 Q655R = 108051_005 Q655R (numbering of 108060)
Description: as §1, §3, §2

108060_024 R655Q = tested on: 108060_024 R655Q
Description: as §1, §3, §2

108060_022 Q655R = tested on: 108060_022 Q655R
Description: as §1, §3, §2

enfuvirtide
IC50 of indicated MAb or fusion inhibitor (108060 clone 022 wtR): 0.068 µg/mL | IC50 of indicated MAb or fusion inhibitor (108060 clone 024 wtS; 108060_024 wtS): 0.019 µg/mL | Fold more sensitive to neutralization (108060 clone 024 wtS; clone 024 compared with clone 022 of subject 108060): 3.5 fold | IC50 of indicated MAb or fusion inhibitor (108069_005 wtR): 0.071 µg/mL | IC50 of indicated MAb or fusion inhibitor (108069_011 wtS): 0.145 µg/mL | IC50 of indicated MAb or fusion inhibitor (108051_005 wtR): 0.088 µg/mL | IC50 of indicated MAb or fusion inhibitor (108051_006 wtS): 0.008 µg/mL | IC50 of indicated MAb or fusion inhibitor (108069_005 Q655R; 108069_005 Q655R (numbering of 108060)): 0.011 µg/mL | Fold increase in sensitivity (108069_005 Q655R; Q to R at position corresponding to 655 in the 108069 virus, versus parental virus): more than 17 fold | IC50 of indicated MAb or fusion inhibitor (108051_005 Q655R): 0.036 µg/mL | IC50 of indicated MAb or fusion inhibitor (108060_024 R655Q): 0.130 µg/mL | IC50 of indicated MAb or fusion inhibitor (108060_022 Q655R; 108060_022 Q655R): 0.004 µg/mL | Fold increase in neutralization sensitivity (108060_022 Q655R; 108060_022 Q655R compared with wild-type clone 022): 17 fold
